Test results taken from US20220348592A1, “FUSED HETEROCYCLIC DERIVATIVES” (Janssen Sciences Ireland Unlimited Company, priority 2019, published 2022).

How the values were obtained:
HBV = assay: Anti-HBV activity: intracellular HBV DNA by real-time PCR in HepG2.117 cell line; type: cell-based, Hepatitis B virus; conditions: Hepatitis B virus, 72 h; HepG2.117 cells, 3 days of treatment, intracellular HBV DNA by real-time PCR, mean value; read-out: HBV-AVE-HepG2.117 EC50 (μM, mean value)
Procedure: The anti HBV activity was measured using the HepG2.117 cell line, a stable, inducibly HBV producing cell line, which replicates HBV in the absence of doxicycline (Tet-off system). The HepG2 cell line is available from ATCC® under number HB-8065. Transfection of the HepG2 cell line can be as described in Sun and Nassal 2006 Journal of Hepatology 45 (2006) 636-645 “Stable HepG2- and Huh7-based human hepatoma cell lines for efficient regulated expression of infectious hepatitis B virus”.
For the antiviral assay, HBV replication was induced, followed by a treatment with serially diluted compound in 96-well plates. After 3 days of treatment, the antiviral activity was determined by quantification of intracellular HBV DNA using real-time PCR and an HBV specific primer set and probe.

[1] = Cytotoxicity in HepG2.117 cells, ATPlite Luminescence Assay; type: cell-based, human; conditions: human, incubated for 3 days, mean value, read-out: TOX-HepG2.117 CC50 (μM, mean value)
Procedure: Cytotoxicity of the compounds was tested using HepG2 or HepG2.117 cells, incubated for 3 days in the presence of compounds. The viability of the cells was assessed using the PERKIN ELMER ATPlite Luminescence Assay System.”

For CC(c1cc[nH]n1)N1CCn2nc3c(c2C1=O)CN(C(=O)c1ccc(Cl)c(Cl)c1)[C@H](C)C3 (stereo partly shown) [Example C87], the EC50 (HBV) was 0.066 µM and the CC50 at 3 days [1] was > 50 µM.

For CC(c1ccc(C#N)cc1)N1CCn2nc3c(c2C1=O)CN(C(=O)c1ccc(Cl)c(Cl)c1)[C@H](C)C3 (stereo partly shown) [Example C88], the EC50 (HBV) was 0.038 µM and the CC50 at 3 days [1] was > 48 µM.

C[C@@H]1Cc2nn3c(c2CN1C(=O)c1ccc(Cl)c(Cl)c1)C(=O)N(C(C)(C)c1ccc(OC(F)F)cc1)CC3 [Example C90] showed an EC50 (HBV) of 0.667 µM and a CC50 at 3 days [1] of 21.9 µM.

C[C@@H]1Cc2nn3c(c2CN1C(=O)c1ccc(Cl)c(Cl)c1)C(=O)N(Cc1ccc(Cl)nc1)CC3 [Example C91] gave an EC50 (HBV) of 0.083 µM and a CC50 at 3 days [1] of 36.7 µM.

For COc1ccc(C(C)N2CCn3nc4c(c3C2=O)CN(C(=O)c2ccc(Cl)c(Cl)c2)[C@H](C)C4)cc1OC (stereo partly shown) [Example C92], the EC50 (HBV) was 0.025 µM and the CC50 at 3 days [1] was 24.4 µM.

For CC(c1ccccc1)N1CCn2nc3c(c2C1=O)CN(C(=O)c1ccc(Cl)c(Cl)c1)[C@H](C)C3 (stereo partly shown) [Example C93], the EC50 (HBV) was 0.055 µM and the CC50 at 3 days [1] was 30 µM.

With C[C@@H]1Cc2nn3c(c2CN1C(=O)c1cc2c(Cl)c(Cl)ccc2[nH]1)C(=O)N(Cc1ccccn1)CC3 [Example C94, (R)-2-(4,5-dichloro-1H-indole-2-carbonyl)-3-methyl-9-(pyridin-2-ylmethyl)-1,2,3,4,8,9-hexahydropyrido[4′,3′:3,4]pyrazolo[1,5-a]pyrazin-10(7H)-one] the EC50 (HBV) was 0.162 µM and the CC50 at 3 days [1] was 4.77 µM.

In the case of C[C@@H]1Cc2nn3c(c2CN1C(=O)c1ccc(Cl)c(Cl)c1)C(=O)N(Cc1cccc(F)c1C#N)CC3 [Example C95], the EC50 (HBV) is reported as 0.2 µM and the CC50 at 3 days [1] is reported as > 47 µM.

C[C@@H]1Cc2nn3c(c2CN1C(=O)c1cc2c(Cl)cccc2[nH]1)C(=O)N(Cc1ccccn1)CC3 [Example C96] showed an EC50 (HBV) of 0.025 µM and a CC50 at 3 days [1] of 10.7 µM.

C[C@@H]1Cc2nn3c(c2CN1C(=O)c1cc2c(F)c(F)c(F)cc2[nH]1)C(=O)N(Cc1ccccn1)CC3 [Example C97] showed an EC50 (HBV) of 0.011 µM and a CC50 at 3 days [1] of 9.79 µM.

In the case of CC(c1ccc(Br)cc1)N1CCn2nc3c(c2C1=O)CN(C(=O)c1ccc(Cl)c(Cl)c1)[C@H](C)C3 (stereo partly shown) [Example C98], the EC50 (HBV) is reported as 0.073 µM and the CC50 at 3 days [1] is reported as 9.83 µM.

With CC(c1ccccn1)N1CCn2nc3c(c2C1=O)CN(C(=O)c1ccc(Cl)c(Cl)c1)[C@H](C)C3 (stereo partly shown) [Example C99] the EC50 (HBV) was 0.072 µM and the CC50 at 3 days [1] was > 50 µM.

Work on C[C@@H]1Cc2nn3c(c2CN1C(=O)c1cc2c(C#N)c(F)ccc2[nH]1)C(=O)N(Cc1ccccn1)CC3 [Example C100] yielded an EC50 (HBV) of 0.085 µM and a CC50 at 3 days [1] of 15.5 µM.

In the case of C[C@@H]1Cc2nn3c(c2CN1C(=O)c1cc2c(F)c(F)ccc2[nH]1)C(=O)N(Cc1ccccn1)CC3 [Example C101], the EC50 (HBV) is reported as 0.036 µM and the CC50 at 3 days [1] is reported as 8.95 µM.

Work on C[C@@H]1Cc2nn3c(c2CN1C(=O)c1cc2c(Cl)c(F)ccc2[nH]1)C(=O)N(Cc1ccccn1)CC3 [Example C102] yielded an EC50 (HBV) of 0.019 µM and a CC50 at 3 days [1] of 7.14 µM.

With CC(c1cncnc1)N1CCn2nc3c(c2C1=O)CN(C(=O)c1ccc(Cl)c(Cl)c1)[C@H](C)C3 (stereo partly shown) [Example C103] the EC50 (HBV) was 0.39 µM and the CC50 at 3 days [1] was > 50 µM.

For C[C@@H]1Cc2nn3c(c2CN1C(=O)c1ccn2cc(C(F)(F)F)nc2c1)C(=O)N(Cc1ccccn1)CC3 [Example C104], the EC50 (HBV) was 0.632 µM and the CC50 at 3 days [1] was > 50 µM.

Work on COc1ccc(CN2CCn3nc4c(c3C2=O)CN(C(=O)c2ccc(Cl)c(Cl)c2)[C@H](C)C4)cn1 [Example C106] yielded an EC50 (HBV) of 0.031 µM and a CC50 at 3 days [1] of 33.8 µM.

In the case of Cc1c(F)ccc2[nH]c(C(=O)N3Cc4c(nn5c4C(=O)N(Cc4ccccn4)CC5)C[C@H]3C)cc12 [Example C107], the EC50 (HBV) is reported as 0.015 µM and the CC50 at 3 days [1] is reported as 13.2 µM.

Molecule C[C@@H]1Cc2nn3c(c2CN1C(=O)c1cc2c(F)ccc(F)c2[nH]1)C(=O)N(Cc1ccccn1)CC3 [Example C108] has an EC50 (HBV) of 0.085 µM and a CC50 at 3 days [1] of 20 µM.

Cc1cc(F)cc2[nH]c(C(=O)N3Cc4c(nn5c4C(=O)N(Cc4ccccn4)CC5)C[C@H]3C)cc12 [Example C109] gave an EC50 (HBV) of 0.013 µM and a CC50 at 3 days [1] of 18.9 µM.

Molecule C[C@@H]1Cc2nn3c(c2CN1C(=O)c1cc2c(F)cc(F)cc2[nH]1)C(=O)N(Cc1ccccn1)CC3 [Example C110] has an EC50 (HBV) of 0.017 µM and a CC50 at 3 days [1] of 16 µM.

For Cc1cc(C(=O)N2Cc3c(nn4c3C(=O)N(Cc3ccccn3)CC4)C[C@H]2C)ccc1Cl [Example C111], the EC50 (HBV) was 0.086 µM and the CC50 at 3 days [1] was > 50 µM.

For C[C@@H]1Cc2nn3c(c2CN1C(=O)c1ccc(Cl)c(C(F)(F)F)c1)C(=O)N(Cc1ccccn1)CC3 [Example C112], the EC50 (HBV) was 0.025 µM and the CC50 at 3 days [1] was > 50 µM.

In the case of C[C@@H]1Cc2nn3c(c2CN1C(=O)c1ccc(OC(F)F)c(Cl)c1)C(=O)N(Cc1ccccn1)CC3 [Example C113], the EC50 (HBV) is reported as 0.257 µM and the CC50 at 3 days [1] is reported as > 50 µM.

Molecule Cc1ccc(F)c2[nH]c(C(=O)N3Cc4c(nn5c4C(=O)N(Cc4ccccn4)CC5)C[C@H]3C)cc12 [Example C114] has an EC50 (HBV) of 0.048 µM and a CC50 at 3 days [1] of 30.9 µM.
